Test results reported in PMC8162438, “Cancer cell-selective modulation of mitochondrial respiration and metabolism by potent organogold(III) dithiocarbamates” (Chemical Science, 2020).

System: MDA-MB-231
Test: Mitochondrial membrane potential (JC-1)
Assay type: cell-based
Details: MDA-MB-231, 10 μM, 6 h, versus DMSO
From the text: Activated DEG included NDUFS7, [complex I], COX7A1 gene [complex IV], and ATP5O, ATP5I genes [complex V] whereas the inhibited DEG were MT-ND4L [complex I], SDHD gene [complex II], and ATP5C, ATP5F [complex V]. […] These findings prompted functional biology experiments to further corroborate the effect of 2a or its mechanism of action in TNBC. We examined the effect of 2a on mitochondrial membrane potential, assayed by JC-1 dye.[85] […] We used carbonyl cyanide m-chlorophenyl hydrazine (CCCP), an uncoupler, as a positive control to validate the experiment. The MMP is a key driving force in ATP synthesis and overall a key factor in maintaining redox homeostasis throughout the cell.[86] […]
text (Figure 5C). Samples 37 °C, NaN 3, methyl-β-cyclodextrin, and chlorpromazine hydrochloride were calculated using calibration curve Fig. S134 and samples wortmannin, genistein, and +4 °C were calculated using calibration curve Fig. S135. […]
Prior to analysis samples were required to pass three tests before library construction: 1) nanodrop for RNA purity (OD 260/OD280), 2) agarose gel electrophoresis for RNA integrity and potential contamination, and 3) Agilent 2100 check RNA integrity. […] After library construction, qPCR was used to accurately quantify the library effective concentration (> 2 nM), in order to ensure the library quality. […]

**Q.** With `C[N+](C)=C1[S][Au-2]2([S]1)[c]1ccccc1Cc1cccc[n+]12.F[P-](F)(F)(F)(F)F` (stereo not shown) [2a] as the compound, how does the “Mitochondrial membrane potential (JC-1)” value read?
**A.** strong depolarization of the MMP
